From patent US10562878B2, “Cycloalkylamines as monoamine reuptake inhibitors” (Sunovion Pharmaceuticals Inc., priority 2006, dated 2020)
Structures can show the parent of a compound that is named as a salt. Where two headings read alike, the source gives them in different places.

How the values were obtained:
[1] = target: human serotonin transporter (Homo sapiens (Human), UniProt P31645); assay: Serotonin functional uptake assay, recombinant human transporter in HEK-293 cells; assay type: cell-based; details: Human serotonin transporter uptake; read-out: hSERT IC50
Sequence of human serotonin transporter (P31645 whole entry): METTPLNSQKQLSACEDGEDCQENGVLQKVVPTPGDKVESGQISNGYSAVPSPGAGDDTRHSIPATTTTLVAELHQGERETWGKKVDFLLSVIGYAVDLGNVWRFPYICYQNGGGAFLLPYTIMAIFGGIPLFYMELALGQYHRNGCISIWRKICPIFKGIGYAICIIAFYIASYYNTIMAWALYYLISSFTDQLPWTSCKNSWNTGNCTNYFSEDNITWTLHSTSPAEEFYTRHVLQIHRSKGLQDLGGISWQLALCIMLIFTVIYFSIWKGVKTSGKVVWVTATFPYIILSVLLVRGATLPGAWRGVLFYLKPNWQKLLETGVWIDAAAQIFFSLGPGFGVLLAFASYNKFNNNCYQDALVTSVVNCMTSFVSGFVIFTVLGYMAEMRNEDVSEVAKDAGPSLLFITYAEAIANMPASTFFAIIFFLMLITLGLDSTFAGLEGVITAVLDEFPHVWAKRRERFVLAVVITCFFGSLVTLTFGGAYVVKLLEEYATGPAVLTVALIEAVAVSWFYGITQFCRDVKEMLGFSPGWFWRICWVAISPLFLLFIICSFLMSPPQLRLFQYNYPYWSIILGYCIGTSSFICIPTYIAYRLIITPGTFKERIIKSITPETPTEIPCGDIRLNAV

[2] = target: human dopamine transporter (Homo sapiens (Human), UniProt Q01959); assay: Dopamine functional uptake assay, recombinant human transporter in CHO-K1 or HEK293 cells; assay type: cell-based; details: read-out: hDAT IC50
Sequence of human dopamine transporter (Q01959 whole entry): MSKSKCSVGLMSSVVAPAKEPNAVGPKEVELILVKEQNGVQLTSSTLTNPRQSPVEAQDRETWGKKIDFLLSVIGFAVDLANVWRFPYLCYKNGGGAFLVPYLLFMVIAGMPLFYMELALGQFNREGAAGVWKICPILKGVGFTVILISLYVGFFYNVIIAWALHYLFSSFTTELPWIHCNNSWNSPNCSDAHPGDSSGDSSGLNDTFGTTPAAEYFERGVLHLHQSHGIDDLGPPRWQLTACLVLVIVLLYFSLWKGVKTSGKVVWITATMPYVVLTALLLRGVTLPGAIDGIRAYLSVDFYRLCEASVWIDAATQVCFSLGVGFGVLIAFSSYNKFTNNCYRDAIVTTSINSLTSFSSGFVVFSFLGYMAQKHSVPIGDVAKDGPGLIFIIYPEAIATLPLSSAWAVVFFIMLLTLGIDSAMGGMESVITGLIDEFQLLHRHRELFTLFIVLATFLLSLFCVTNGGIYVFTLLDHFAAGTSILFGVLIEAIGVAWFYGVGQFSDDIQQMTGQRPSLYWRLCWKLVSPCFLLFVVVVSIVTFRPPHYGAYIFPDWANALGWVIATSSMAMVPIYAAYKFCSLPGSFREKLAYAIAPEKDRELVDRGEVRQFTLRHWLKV

[3] = target: 5-HT Transporter (SERT) sites in mouse brain (Mus musculus (Mouse), UniProt Q60857); assay: Ex vivo [3H] citalopram binding to SERT sites in mouse brain after oral dosing; details: mice, 60 min after treatment; for receptor occupancy at 1 mg/kg / receptor occupancy at 3 mg/kg / receptor occupancy at 10 mg/kg / receptor occupancy at 30 mg/kg: mouse
[4] = target: DA Transporter (DAT) sites in mouse brain (Mus musculus (Mouse), UniProt Q61327); assay: Ex vivo [3H] WIN 35428 binding to DAT sites in mouse brain after oral dosing; details: mice, 60 min after treatment; for receptor occupancy at 1 mg/kg / receptor occupancy at 3 mg/kg / receptor occupancy at 10 mg/kg / receptor occupancy at 30 mg/kg: mouse
mice [5] = assay: Mouse tail suspension test; assay type: in vivo
Rats = assay: Rat forced swim test; assay type: in vivo
[6] = target: T1, Norepinephrine Transporter (NET) sites in mouse brain (Mus musculus (Mouse), UniProt O55192); details: mice, 60 min after treatment
[7] = target: T1, Norepinephrine Transporter (NET) sites in mouse brain; assay: in vivo; details: po, read-out: NET % Transporter Occupancy
mice [8] = assay: Mouse locomotor activity; assay type: in vivo

| SMILES | SERT Mean Specific Binding ± S.E.M. ([3]; 1 mg/kg PO) [dpm] | SERT Mean Specific Binding ± S.E.M. ([3]; 3 mg/kg PO) [dpm] | SERT Mean Specific Binding ± S.E.M. ([3]; 10 mg/kg PO) [dpm] | SERT Mean Specific Binding ± S.E.M. ([3]; 30 mg/kg PO) [dpm] | receptor occupancy at 1 mg/kg ([3]; 1 mg/kg PO) [%] | DAT Mean Specific Binding ± S.E.M. ([4]; 1 mg/kg PO) [dpm] | DAT Mean Specific Binding ± S.E.M. ([4]; 3 mg/kg PO) [dpm] | DAT Mean Specific Binding ± S.E.M. ([4]; 30 mg/kg PO) [dpm] | receptor occupancy at 1 mg/kg ([4]; 1 mg/kg PO) [%] | receptor occupancy at 3 mg/kg ([4]; 3 mg/kg PO) [%] | receptor occupancy at 10 mg/kg ([4]; 10 mg/kg PO) [%] | receptor occupancy at 30 mg/kg ([4]; 30 mg/kg PO) [%] | Mouse Tail Suspension Mean Immobility Time ± S.E.M. (mice [5]; 10 mg/kg PO) | Mouse Tail Suspension Mean Immobility Time ± S.E.M. (mice [5]; 30 mg/kg PO) | Rat Forced Swim Climbing (Means ± S.E.M.) (Rats; 3 mg/kg PO) | Rat Forced Swim Immobility (Means ± S.E.M.) (Rats; 3 mg/kg PO) | NET Mean Specific Binding ± S.E.M. ([6]; 1 mg/kg PO) [dpm] | NET Mean Specific Binding ± S.E.M. ([6]; 3 mg/kg PO) [dpm] | NET Mean Specific Binding ± S.E.M. ([6]; 10 mg/kg PO) [dpm] | NET Mean Specific Binding ± S.E.M. ([6]; 30 mg/kg PO) [dpm] | also measured |
| --- | --- | --- | --- | --- | --- | --- | --- | --- | --- | --- | --- | --- | --- | --- | --- | --- | --- | --- | --- | --- | --- |
| CN(C)C[C@]1(c2ccc(Cl)c(Cl)c2)CCCC[C@H]1O (relative stereo) [153 E2, trans-2-(3,4-dichlorophenyl)-2-((dimethylamino)methyl)cyclohexanol] | 3271 ± 199 | 2968 ± 100 | 2327 ± 150 | 1359 ± 89 | -1 | 22774 ± 916 | 24159 ± 1313 | 16194 ± 1293 | -10 | -16 | -6 | 22 | 170.2 ± 6.3 | 154.5 ± 8.4 | 8.8 ± 1.5 | 49.9 ± 1.7 | 1804 ± 79 | 1726 ± 44 | 1734 ± 62 | 1140 ± 53 | IC50 [1]: 0.064 µM; IC50 [2]: 0.025 µM; receptor occupancy at 3 mg/kg ([3]; 3 mg/kg PO): 8%; receptor occupancy at 10 mg/kg ([3]; 10 mg/kg PO): 28%; receptor occupancy at 30 mg/kg ([3]; 30 mg/kg PO): 58%; Rat Forced Swim Swimming (Means ± S.E.M.) (Rats; 3 mg/kg PO): 1.9 ± 0.8; Rat Forced Swim Climbing (Means ± S.E.M.) (Rats; 10 mg/kg PO): 11.7 ± 1.8; Rat Forced Swim Immobility (Means ± S.E.M.) (Rats; 10 mg/kg PO): 44.0 ± 2.1; Rat Forced Swim Swimming (Means ± S.E.M.) (Rats; 10 mg/kg PO): 4.3 ± 1.1; Rat Forced Swim Climbing (Means ± S.E.M.) (Rats; 30 mg/kg PO): 22.2 ± 5.2; Rat Forced Swim Immobility (Means ± S.E.M.) (Rats; 30 mg/kg PO): 31.3 ± 6.7; Rat Forced Swim Swimming (Means ± S.E.M.) (Rats; 30 mg/kg PO): 4.6 ± 1.3; receptor occupancy at 1 mg/kg [7]: 6%; receptor occupancy at 3 mg/kg [7]: 10%; receptor occupancy at 10 mg/kg [7]: 9%; receptor occupancy at 30 mg/kg [7]: 40% |
| CN(C)C[C@]1(c2ccc3ccccc3c2)CCCC[C@H]1O (relative stereo) [164 E1, trans-2-((dimethylamino)methyl)-2-(naphthalen-2-yl)cyclohexanol] | 2796 ± 133 | 2273 ± 74 | 783 ± 61 | 271 ± 50 | 20 | 23574 ± 1313 | 18002 ± 1516 | 15630 ± 1085 | -11 | 16 | 17 | 27 | 162.1 ± 4.6 | 155.3 ± 7.8 |  |  | 1122 ± 58 | 1046 ± 23 | 903 ± 48 | 610 ± 59 | receptor occupancy at 3 mg/kg ([3]; 3 mg/kg PO): 35%; receptor occupancy at 10 mg/kg ([3]; 10 mg/kg PO): 78%; receptor occupancy at 30 mg/kg ([3]; 30 mg/kg PO): 92%; DAT Mean Specific Binding ± S.E.M. ([4]; 10 mg/kg PO): 17727 ± 2871 dpm; Mouse Locomotor Activity Total Distance Traveled ± S.E.M. (mice [8]; 10 mg/kg PO): 210.3 ± 40.4; receptor occupancy at 1 mg/kg [7]: -8%; receptor occupancy at 3 mg/kg [7]: -1%; receptor occupancy at 10 mg/kg [7]: 13%; receptor occupancy at 30 mg/kg [7]: 41% |
| CCC(N)C1(c2ccc(Cl)c(Cl)c2)CCCCC1 (single isomer, unassigned) [17 E1, 1-(1-(3,4-dichlorophenyl)cyclohexyl)propan-1-amine] |  |  |  |  |  |  |  |  |  |  |  |  | 182.6 ± 4.1 | 150.9 ± 7.8 |  |  |  |  |  |  | Mouse Tail Suspension Mean Immobility Time ± S.E.M. (mice [5]; 3 mg/kg PO): 184.7 ± 9.0; Mouse Locomotor Activity Total Distance Traveled ± S.E.M. (mice [8]; 3 mg/kg PO): 649.3 ± 78.4; Mouse Locomotor Activity Total Distance Traveled ± S.E.M. (mice [8]; 10 mg/kg PO): 478.3 ± 88.5; Mouse Locomotor Activity Total Distance Traveled ± S.E.M. (mice [8]; 30 mg/kg PO): 428.3 ± 120.6 |
| CNC(C)C1(c2ccc(Cl)c(Cl)c2)CCCCC1 (single isomer, unassigned) [44 E1, 1-(1-(3,4-dichlorophenyl)cyclohexyl)-N-methylethanamine] |  |  |  |  |  |  |  |  |  |  |  |  |  | 120.4 ± 9.0 |  |  |  |  |  |  | Mouse Locomotor Activity Total Distance Traveled ± S.E.M. (mice [8]; 30 mg/kg PO): 402.3 ± 71.0 |
| CC(N(C)C)C1(c2ccc3ccccc3c2)CCCCC1 (single isomer, unassigned) [56 E1, N,N-dimethyl-1-(1-(naphthalen-2-yl)cyclohexyl)ethanamine] | 2625 ± 138 | 1346 ± 109 | 278 ± 42 | 151 ± 60 | 19 | 41561 ± 1611 | 42127 ± 2130 | 14637 ± 1567 | 5 | 4 | 23 | 67 | 174.8 ± 6.1 | 141.9 ± 7.4 | 7.1 ± 1.6 | 52.2 ± 1.6 | 616 ± 50 | 368 ± 17 | 106 ± 20 | 19 ± 2 | receptor occupancy at 3 mg/kg ([3]; 3 mg/kg PO): 58%; receptor occupancy at 10 mg/kg ([3]; 10 mg/kg PO): 91%; receptor occupancy at 30 mg/kg ([3]; 30 mg/kg PO): 95%; DAT Mean Specific Binding ± S.E.M. ([4]; 10 mg/kg PO): 33478 ± 1779 dpm; Rat Forced Swim Swimming (Means ± S.E.M.) (Rats; 3 mg/kg PO): 0.3 ± 0.2; Rat Forced Swim Climbing (Means ± S.E.M.) (Rats; 10 mg/kg PO): 8.6 ± 0.9; Rat Forced Swim Immobility (Means ± S.E.M.) (Rats; 10 mg/kg PO): 50.7 ± 1.0; Rat Forced Swim Swimming (Means ± S.E.M.) (Rats; 10 mg/kg PO): 0.8 ± 0.3; Rat Forced Swim Climbing (Means ± S.E.M.) (Rats; 30 mg/kg PO): 17.9 ± 2.4; Rat Forced Swim Immobility (Means ± S.E.M.) (Rats; 30 mg/kg PO): 40.4 ± 2.7; Rat Forced Swim Swimming (Means ± S.E.M.) (Rats; 30 mg/kg PO): 1.0 ± 0.4; receptor occupancy at 1 mg/kg [7]: 20%; receptor occupancy at 3 mg/kg [7]: 52%; receptor occupancy at 10 mg/kg [7]: 86%; receptor occupancy at 30 mg/kg [7]: 98% |
| CN[C@H](C)C1(c2ccc(Cl)c(Cl)c2)CCCCC1 (stereo in doubt) [48 E1, 1-(1-(3,4-dichlorophenyl)cyclohexyl)-N-methylethanamine hydrochloride] |  |  |  |  | -1 | 20656 ± 1531 | 18039 ± 1265 | 3173 ± 541 | -1 | 11 | 52 | 84 | 174.1 ± 5.8 | 134.5 ± 9.6 | 7.1 ± 0.6 | 49.6 ± 1.5 | 2111 ± 119 | 1911 ± 144 | 954 ± 115 | 346 ± 55 | DAT Mean Specific Binding ± S.E.M. ([4]; 10 mg/kg PO): 9792 ± 977 dpm; Rat Forced Swim Swimming (Means ± S.E.M.) (Rats; 3 mg/kg PO): 3.7 ± 1.0; Rat Forced Swim Climbing (Means ± S.E.M.) (Rats; 10 mg/kg PO): 17.9 ± 2.5; Rat Forced Swim Immobility (Means ± S.E.M.) (Rats; 10 mg/kg PO): 35.6 ± 3.5; Rat Forced Swim Swimming (Means ± S.E.M.) (Rats; 10 mg/kg PO): 6.5 ± 1.6; Rat Forced Swim Climbing (Means ± S.E.M.) (Rats; 30 mg/kg PO): 20.6 ± 2.9; Rat Forced Swim Immobility (Means ± S.E.M.) (Rats; 30 mg/kg PO): 26.9 ± 4.4; Rat Forced Swim Swimming (Means ± S.E.M.) (Rats; 30 mg/kg PO): 9.7 ± 1.7; receptor occupancy at 1 mg/kg [7]: 12%; receptor occupancy at 3 mg/kg [7]: 21%; receptor occupancy at 10 mg/kg [7]: 60%; receptor occupancy at 30 mg/kg [7]: 86% |
| CNCC1(c2ccc(Cl)c(Cl)c2)CCCCC1 [Compound 75, 1-(1-(3,4-dichlorophenyl)cyclohexyl)-N-methylmethanamine (hydrochloride)] |  |  |  |  |  |  |  |  |  |  |  |  | 177.7 ± 5.8 | 143.5 ± 5.8 |  |  |  |  |  |  | Mouse Tail Suspension Mean Immobility Time ± S.E.M. (mice [5]; 3 mg/kg PO): 187.8 ± 9.6; Mouse Locomotor Activity Total Distance Traveled ± S.E.M. (mice [8]; 3 mg/kg PO): 653.5 ± 48.4; Mouse Locomotor Activity Total Distance Traveled ± S.E.M. (mice [8]; 10 mg/kg PO): 608.8 ± 83.4; Mouse Locomotor Activity Total Distance Traveled ± S.E.M. (mice [8]; 30 mg/kg PO): 655.3 ± 117.7 |
| CN(C)C[C@]1(c2ccc3ccccc3c2)CC[C@](C)(O)CC1 [Compound 225, (1s,4s)-4-((dimethylamino)methyl)-1-methyl-4-(naphthalen-2-yl)cyclohexanol] | 3842 ± 152 | 2118 ± 139 | 904 ± 35 | 414 ± 37 |  | 19787 ± 3338 | 21666 ± 3698 | 14618 ± 1209 |  |  |  |  | 137.8 ± 5.2 | 136.3 ± 2.5 | 8.4 ± 1.7 | 50.8 ± 1.8 | 1170 ± 68 | 813 ± 64 | 393 ± 21 | 230 ± 33 | IC50 [2]: 0.167 µM; DAT Mean Specific Binding ± S.E.M. ([4]; 10 mg/kg PO): 18872 ± 2775 dpm; Mouse Locomotor Activity Total Distance Traveled ± S.E.M. (mice [8]; 0.3 mg/kg PO): 519.5 ± 56.4; Mouse Locomotor Activity Total Distance Traveled ± S.E.M. (mice [8]; 1 mg/kg PO): 423.4 ± 62.3; Rat Forced Swim Swimming (Means ± S.E.M.) (Rats; 3 mg/kg PO): 0.8 ± 0.3; Rat Forced Swim Climbing (Means ± S.E.M.) (Rats; 10 mg/kg PO): 11.1 ± 2.7; Rat Forced Swim Immobility (Means ± S.E.M.) (Rats; 10 mg/kg PO): 47.6 ± 3.0; Rat Forced Swim Swimming (Means ± S.E.M.) (Rats; 10 mg/kg PO): 1.2 ± 0.6; Rat Forced Swim Climbing (Means ± S.E.M.) (Rats; 30 mg/kg PO): 25.0 ± 4.6; Rat Forced Swim Immobility (Means ± S.E.M.) (Rats; 30 mg/kg PO): 33.4 ± 4.8; Rat Forced Swim Swimming (Means ± S.E.M.) (Rats; 30 mg/kg PO): 1.1 ± 0.5 |
